Assay results: US20170202939A1, “PERSONALIZED CANCER VACCINES AND METHODS THEREFOR” (Washington University, priority 2014, published 2017)
No end group written: not given here.

Key:
[1] = tested on: neoantigen-specific T cells; test: cytokine production by neoantigen-specific T cells (MILLIPLEX / IFN-γ ELISA); assay type: cell-based, human; conditions: upon antigen stimulation, supernatants at 24 h
Procedure: For analysis of cytokines secreted by T cells upon SCT activation, cultures were activated 14 d after SCT or AT-SCT stimulation, T cells were restimulated with SCT at 1:1 ratio in RPMI 1640 supplemented with 5% pooled human sera (RPMI-5), supernatants were collected 24 h after activation and characterized using a MILLIPLEX® cytokine kit (Millipore, Billerica, Mass.), per the manufacturer's instructions.
(§1) For functional characterization, neoantigen-specific T cell lines were generated using autologous mDC and antigen loaded artificial antigen presenting cells at a ratio of 1:1 as previously described (Carreno, B. M., et al., J. Immunol., 188, 5839-5849, 2012). […] For production of cytokines, neoantigen-specific T cells were restimulated using artificial antigen presenting cells in the presence or absence of peptide, supernatants collected at 24 h and cytokine produced determined using MILLIPLEX® MAP Human Cytokine Panel I (EMD Millipore).
Substantial evidence supports the hypothesis that Th2/Tc2 immune polarization correlates with worse disease outcome in patients with cancer (Fridman, W. H., et al., Nat. Rev. Cancer, 12, 298-306, 2012). […] Thus, we determined production of cytokines upon antigen stimulation as described above. […] Cytokine production was determined using a multi-plex bead assay. […]

[2] = tested on: peptide-pulsed T2 (HLA-A*02:01) cells; test: 4 h 51Cr-release assay with peptide titrations on T2 cells (peptide avidity, AAS vs WT recognition); assay type: cell-based, human; conditions: peptide presented on T2 cells
Procedure: ^51Cr release assays to measure specific lysis have been described previously (Carreno, B. M., et al., Immunol. Cell Biol., 87: 167-177, 2009; Linette, G. P. et al., Clin. Cancer Res. 11, 7692-7699, 2005). Melanoma cell lines DM6 (HLAA2+ gp100+) and A375 (HLA-A2+gp100−) were labeled with 25 μCi ^51Cr for 1 hour, washed, and tested as targets in a standard 4-hour assay. Effectors were generated using PBMCs collected after D3 and cultured for 12 days in the presence of peptide (40 μg/ml) and IL2 (50 U/ml every other day). Vaccine-induced antigen-specific T cells were characterized using HLAA*0201/peptide dextramers (Immudex). To determine the avidity (effective concentration at 50% maximal lysis) of vaccine-induced T cells for antigen, T2 cells were pulsed with titrated G209-2M or G280-9V peptide concentrations for 1 hour in serum-free media followed by 51Cr (25 μCi) labeling for 1 hour, washed twice, and tested using vaccine-induced gp100-specific T cells in a standard 4-hour assay.
as §1
To examine cross-reactivity, T2 cells were pulsed with MUT or WT peptide at the indicated concentrations, labeled with ^51CR-chromium and used as target in a cytotoxic assay. Vaccine-induced T cells were incubated with peptide-pulsed T2 cells and ^51Cr-Chromium release measured at 4 h. […]
FIG. 34 illustrates that neoantigen-specific T cells recognition of AAS (closed circles) and WT (open circles) peptides was determined in a standard 4 h ^51Cr-release assay using peptide titrations on T2 (HLAA*02:01) cells. […]

Sequence	cytokine phenotype of neoantigen-specific T cells (IFN-γ relative to IL-4, IL-5, IL-13) [1]	T cell discrimination between mutated (AAS) and wild-type peptide [2]	T cell discrimination between mutated (AAS) and wild-type peptide ([2]; listed as OR8B3)	T cell discrimination between mutated (AAS) and wild-type peptide ([2]; listed as OR8B3 T190I)
CLNEYHLFL	mixed phenotype	–	–	–
KLMNIQQKL	Tc1 phenotype	can discriminate between peptide sequence containing single an changes	–	–
QLSCISTYV	–	–	cannot discriminate between MUT and WT sequences	could not discriminate between AAS and wild-type (WT) peptide
